# Results reported in US9682994B2, “Inhibitors of retroviral replication” (The Scripps Research Institute, priority 2011, dated 2017).
# Key:
# [1] = target: T1, DNA-dependent protein kinase (DNA-PK) catalytic subunit (Homo sapiens, UniProt P78527); assay: Bio-CA pull-down / mass spectrometry, DNA-PK; format: binding
# T1 construct: endogenous in cells; host or cells: P42 (HeLa-CD4-LTR-LacZ) cells; HEK293T cells
# Procedure: FIG. 14: Bio-CA associated proteins. […] After SDS-PAGE analysis and Coomassie staining, gel slices were trypsin-digested and sent to mass spectrometry analysis.
# To identify cellular proteins associated with CA, a biotinylated form of the compound (Bio-CA) was used. […] The Bio-CA was used to cover streptavidin-coated magnetic beads to pull down interacting proteins from either uninfected or chronically infected lysates of cells grown in the presence or absence of CA for 48 hours (FIG. 14D). The identity of the proteins pulled down under the different conditions was determined by HPLC MS/MS analysis. The proteins were identified with a greater than 95% confidence using a proprietary Scripps proteomics software package for protein identification, statistical analysis, and mass/peptide sequence correlation. The HIV proteome was added to the proteomics software search database before analysis. Many proteins were identified in uninfected untreated and in chronically untreated samples (approximately 300), however only 53 were displaced by more than 50% by the presence of CA. Of these 53 proteins, it appears that at least 2 may have a role in HIV-1 replication: DNA-dependent protein kinase catalytic subunit (DNA-PK) and helicase like transcription factor (HLTF).
# HIV-1 pNL4-3 [2] = assay: Viral RNA in chronically infected CEM SS cells; format: cell-based; settings: 7 days treatment
# Procedure: CEM SS cells chronically infected with pNL4-3 were treated with the indicated compounds for 7 days. Quantification of viral RNA was performed as in FIG. 1E.
# Such an early time point rules out de novo infections. […] This conclusion was further supported by the fact that treatment of cells that were chronically infected, and therefore continuously shedding the virus (without incurring new infections, due to down-regulation of CD4 from the cell surface), reduced virus production to undetectable levels (FIG. 1F). […] Results were similar when viral release from cells treated for 60 days were measured by p24 enzyme-linked immunosorbent assay (ELISA) (FIG. 1G).
# NF-kB reporter construct = assay: TNF-α activation of NF-kB luciferase reporter in TE671 cells; format: cell-based
# Procedure: FIG. 8B: TE671 cells were transfected with an NF-kB luciferase reporter plasmid. The following day cells were treated with TNF-α in presence or absence of dCA. Cells were lysed 5 hours later and Luciferase activity was measured as in FIG. 8A.
# TE671 cells were plated at 6.25×10^4 per well in a 24-well plate. Cells were transfected twenty-four hours later with either 200 ng or 400 ng of NF-kB-Luc (Promega, Cat No. E8491) using Fugene 6 (Roche) per manufacturer's instruction. […] Cells were lysed 5 hours later with 1× Lysis Buffer and luciferase activity was measured using the luciferase Assay System (Promega) on a Berthhold luminometer. Protein concentration was determined by Bradford assay. Results corresponding to the adjustment of the luciferase activity per protein concentration of each sample are shown as Relative light units (RLU). Experiments were performed in triplicate.
# HIV-1 pNL4-3 [3] = assay: Viral mRNA expression after acute infection of HeLa-CD4 cells (RT-qPCR); format: cell-based
# Text: FIG. 1E: Analysis of viral mRNA expression. […] First-strand cDNA was synthesized with random primers and target DNA was quantified by qPCR using primers recognizing the env and LTR regions. Results were normalized as copies of viral mRNA per copy of GAPDH mRNA. […] RNA samples not reverse transcribed were used as negative control. Error bars represent standard deviations.
# Total RNA extracted four days after acute infection with pNL4-3 (MOI>>1) in the presence of drugs. First-strand cDNA was synthesized with random primers, and quantified by qPCR using primers recognizing the env and LTR regions. Results were normalized as copies of viral mRNA per copy of GAPDH mRNA. The arbitrary value of 1 was assigned to the DMSO control. RNA samples that were not reverse transcribed were used as negative control. Error bars represent standard deviation.
# First-strand cDNA from RNA for qPCR was prepared using […]™ first-strand cDNA kit (Invitrogen), following the manufacturer's instructions, using approximately 5 μg of RNA as starting material and random hexamers as first-strand primers. Quantitative PCR was performed with an aliquot of cDNA as template, using […]® 480 SYBR Green I Master (Roche) in a 20 μL reaction according to the manufacturer's instructions. […] The primers used were as follows: […]
# PIs show low efficacy in this short 48 h assay as they act only upon spreading from the initial infection. […] The results were similar when viral production was determined by RT-PCR of viral RNA in HeLa-CD4 cells infected and treated for four days with one compound from each class of inhibitors (FIG. 5E).
# [4] = Mouse mini-PK, plasma levels by LC-MS/MS; format: in vivo, C57Bl-6 mice
# Procedure: In vitro studies compared murine and human hepatic microsomes (150 donor mixed male/female pool). […] C57B16 mice were dosed at 10 mg/kg and drug levels were quantitated in plasma at 1, 6, and 24 h by LC-MS/MS (Table 1B).
# T1 sequence (P78527 whole entry): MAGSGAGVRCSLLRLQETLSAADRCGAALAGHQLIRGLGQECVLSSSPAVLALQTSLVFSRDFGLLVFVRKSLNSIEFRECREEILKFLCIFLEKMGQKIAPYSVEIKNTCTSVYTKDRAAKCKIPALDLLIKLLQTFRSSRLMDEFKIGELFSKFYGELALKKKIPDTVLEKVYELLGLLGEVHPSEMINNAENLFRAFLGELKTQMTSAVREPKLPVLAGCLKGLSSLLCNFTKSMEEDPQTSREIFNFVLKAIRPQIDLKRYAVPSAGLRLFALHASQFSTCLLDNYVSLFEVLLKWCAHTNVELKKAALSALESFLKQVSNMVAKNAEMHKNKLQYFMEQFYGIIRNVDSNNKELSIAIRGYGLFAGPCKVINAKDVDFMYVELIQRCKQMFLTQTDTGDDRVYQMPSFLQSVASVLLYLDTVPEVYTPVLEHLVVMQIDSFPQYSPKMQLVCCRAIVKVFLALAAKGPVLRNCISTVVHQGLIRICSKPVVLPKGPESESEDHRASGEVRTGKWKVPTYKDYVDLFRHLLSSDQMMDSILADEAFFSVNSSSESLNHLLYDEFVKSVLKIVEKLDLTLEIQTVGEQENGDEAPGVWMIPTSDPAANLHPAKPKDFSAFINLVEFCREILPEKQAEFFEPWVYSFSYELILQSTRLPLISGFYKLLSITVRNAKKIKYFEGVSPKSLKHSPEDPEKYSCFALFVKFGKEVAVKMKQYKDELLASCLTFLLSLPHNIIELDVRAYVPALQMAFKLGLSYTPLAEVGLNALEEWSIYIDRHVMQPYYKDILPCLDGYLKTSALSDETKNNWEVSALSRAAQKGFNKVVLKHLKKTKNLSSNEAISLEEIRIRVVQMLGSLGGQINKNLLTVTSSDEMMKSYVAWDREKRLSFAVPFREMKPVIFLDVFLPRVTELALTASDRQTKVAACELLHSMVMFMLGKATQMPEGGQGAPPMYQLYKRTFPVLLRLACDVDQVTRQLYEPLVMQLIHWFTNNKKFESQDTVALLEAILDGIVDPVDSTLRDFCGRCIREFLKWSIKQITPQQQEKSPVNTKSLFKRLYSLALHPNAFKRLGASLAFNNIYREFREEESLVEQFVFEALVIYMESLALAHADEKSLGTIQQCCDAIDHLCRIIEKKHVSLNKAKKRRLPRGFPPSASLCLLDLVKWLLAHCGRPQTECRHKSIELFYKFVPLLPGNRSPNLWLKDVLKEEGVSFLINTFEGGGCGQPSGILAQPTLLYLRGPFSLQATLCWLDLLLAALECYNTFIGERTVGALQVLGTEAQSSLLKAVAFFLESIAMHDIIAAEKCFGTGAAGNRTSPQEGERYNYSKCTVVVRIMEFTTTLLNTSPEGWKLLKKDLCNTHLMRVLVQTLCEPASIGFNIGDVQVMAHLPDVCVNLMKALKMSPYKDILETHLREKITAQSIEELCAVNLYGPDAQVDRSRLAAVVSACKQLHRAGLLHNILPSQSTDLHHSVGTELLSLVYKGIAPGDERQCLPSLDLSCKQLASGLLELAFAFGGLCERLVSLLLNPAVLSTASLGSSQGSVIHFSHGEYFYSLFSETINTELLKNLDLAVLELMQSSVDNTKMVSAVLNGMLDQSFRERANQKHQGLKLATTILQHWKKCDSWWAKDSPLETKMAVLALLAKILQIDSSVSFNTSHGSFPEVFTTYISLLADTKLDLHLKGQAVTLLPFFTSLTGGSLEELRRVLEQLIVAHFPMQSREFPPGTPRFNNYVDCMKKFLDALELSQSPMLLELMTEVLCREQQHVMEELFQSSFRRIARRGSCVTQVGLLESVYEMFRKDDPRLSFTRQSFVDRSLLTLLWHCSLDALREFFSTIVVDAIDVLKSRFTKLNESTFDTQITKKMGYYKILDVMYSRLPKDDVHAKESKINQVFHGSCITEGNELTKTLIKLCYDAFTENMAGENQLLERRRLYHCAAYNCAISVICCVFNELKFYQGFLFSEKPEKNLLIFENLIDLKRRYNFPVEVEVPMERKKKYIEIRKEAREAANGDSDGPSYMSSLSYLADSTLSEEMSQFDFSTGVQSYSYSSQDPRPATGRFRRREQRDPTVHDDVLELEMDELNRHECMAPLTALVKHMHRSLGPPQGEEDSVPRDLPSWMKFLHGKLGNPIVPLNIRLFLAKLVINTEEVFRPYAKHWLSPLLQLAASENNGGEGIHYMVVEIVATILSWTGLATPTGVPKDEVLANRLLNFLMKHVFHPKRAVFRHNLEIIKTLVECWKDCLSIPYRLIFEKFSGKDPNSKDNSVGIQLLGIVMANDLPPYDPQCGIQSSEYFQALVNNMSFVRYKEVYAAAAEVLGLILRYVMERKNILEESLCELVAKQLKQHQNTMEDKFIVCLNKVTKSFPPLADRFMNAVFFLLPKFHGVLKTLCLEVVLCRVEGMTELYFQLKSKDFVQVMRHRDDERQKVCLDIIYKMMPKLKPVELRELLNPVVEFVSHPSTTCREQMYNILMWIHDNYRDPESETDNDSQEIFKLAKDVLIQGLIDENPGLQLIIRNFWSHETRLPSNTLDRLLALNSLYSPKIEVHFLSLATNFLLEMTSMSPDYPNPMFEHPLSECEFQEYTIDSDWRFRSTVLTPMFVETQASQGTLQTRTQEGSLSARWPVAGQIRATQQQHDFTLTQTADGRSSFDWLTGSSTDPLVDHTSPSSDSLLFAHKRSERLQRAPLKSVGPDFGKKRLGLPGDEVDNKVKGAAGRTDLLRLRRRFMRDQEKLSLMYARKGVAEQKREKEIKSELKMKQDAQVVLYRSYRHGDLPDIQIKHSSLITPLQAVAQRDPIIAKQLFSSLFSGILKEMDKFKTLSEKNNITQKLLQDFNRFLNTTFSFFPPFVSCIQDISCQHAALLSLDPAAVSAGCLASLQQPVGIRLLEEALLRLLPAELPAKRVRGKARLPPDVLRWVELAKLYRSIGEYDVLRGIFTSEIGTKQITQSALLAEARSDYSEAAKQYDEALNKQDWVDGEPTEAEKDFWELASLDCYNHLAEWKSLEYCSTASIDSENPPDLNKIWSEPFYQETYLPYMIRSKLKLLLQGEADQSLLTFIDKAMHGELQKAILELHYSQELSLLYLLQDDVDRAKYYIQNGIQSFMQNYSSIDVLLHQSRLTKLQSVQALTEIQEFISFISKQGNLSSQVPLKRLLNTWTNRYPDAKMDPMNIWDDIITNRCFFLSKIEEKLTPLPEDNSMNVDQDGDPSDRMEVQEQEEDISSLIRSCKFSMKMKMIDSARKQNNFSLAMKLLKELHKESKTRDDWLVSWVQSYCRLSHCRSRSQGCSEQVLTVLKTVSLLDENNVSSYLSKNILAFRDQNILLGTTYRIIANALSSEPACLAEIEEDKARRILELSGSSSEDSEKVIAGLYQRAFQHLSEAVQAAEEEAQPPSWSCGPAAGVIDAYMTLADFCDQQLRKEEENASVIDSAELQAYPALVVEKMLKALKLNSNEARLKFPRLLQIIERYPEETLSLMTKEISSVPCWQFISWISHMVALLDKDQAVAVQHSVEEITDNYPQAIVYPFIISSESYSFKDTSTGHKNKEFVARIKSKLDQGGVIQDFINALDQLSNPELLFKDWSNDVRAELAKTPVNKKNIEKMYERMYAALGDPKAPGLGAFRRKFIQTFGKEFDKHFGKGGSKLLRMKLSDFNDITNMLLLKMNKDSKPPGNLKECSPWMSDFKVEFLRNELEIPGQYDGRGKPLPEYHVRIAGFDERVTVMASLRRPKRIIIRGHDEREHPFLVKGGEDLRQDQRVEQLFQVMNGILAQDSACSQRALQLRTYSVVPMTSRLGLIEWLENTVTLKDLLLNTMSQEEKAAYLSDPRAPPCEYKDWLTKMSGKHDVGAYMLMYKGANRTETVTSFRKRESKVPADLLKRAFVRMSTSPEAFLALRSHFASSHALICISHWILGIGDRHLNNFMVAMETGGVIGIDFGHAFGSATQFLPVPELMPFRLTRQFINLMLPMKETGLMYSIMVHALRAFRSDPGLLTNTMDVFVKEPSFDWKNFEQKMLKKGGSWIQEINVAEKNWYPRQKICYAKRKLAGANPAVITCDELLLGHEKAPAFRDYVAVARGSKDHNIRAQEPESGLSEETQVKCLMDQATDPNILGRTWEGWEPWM
smiles,measurement,setting,value
"CN(C)[C@H]1C[C@@]23CC[C@@]4(O2)C(=CC[C@]2(C)C(c5ccc6ccncc6c5)=CC[C@H]24)C=C3[C@@H](O)[C@@H]1O [dCA, didehydro-Cortistatin A]",interaction with DNA-PK,[1],interaction
same,viral RNA levels in chronically infected CEM SS,HIV-1 pNL4-3 [2],reduced viral RNA levels
same,TNFα activation of an NF-κB reporter construct,NF-kB reporter construct,no effect
same,"maximum inhibition, viral RNA",HIV-1 pNL4-3 [3]; HeLa-CD4 infected and treated for four days,around 80%
same,EC50,"HIV-1 pNL4-3 [3]; HeLa-CD4 infected and treated for four days, read-out: EC50, viral production by RT-PCR of viral RNA",< 100 pM
same,total amount of viral RNA in infected cells,"HIV-1 pNL4-3 [3]; acute infection, increasing concentrations",drastic dose-dependent reduction
same,drug levels relative to the EC50 of cell-based assays,"[4]; 1 h after dosing, 10 mg/kg",greater than 1000 fold
same,plasma drug levels for all mice,"[4]; 24 h post dose, 10 mg/kg",above 30 nM
same,health of mice,"[4]; after 24 h treatment, 10 mg/kg",still healthy
same,bioavailability in mice,"[4]; mouse, in vivo",good bioavailability
